What was measured:
Experiment in all cases: TLC product analysis
Assay type in all cases: biochemical
Settings in all cases: 60 °C, MOPS buffer, 10 mM CaCl2
Cel9T = target: T1, Cel9T (Acetivibrio thermocellus, UniProt A3DJ82)
T1 construct: gene Cthe_2812; signal peptide removed, dockerin kept, His-tag, E. coli BL21
T1 sequence (A3DJ82 36-611): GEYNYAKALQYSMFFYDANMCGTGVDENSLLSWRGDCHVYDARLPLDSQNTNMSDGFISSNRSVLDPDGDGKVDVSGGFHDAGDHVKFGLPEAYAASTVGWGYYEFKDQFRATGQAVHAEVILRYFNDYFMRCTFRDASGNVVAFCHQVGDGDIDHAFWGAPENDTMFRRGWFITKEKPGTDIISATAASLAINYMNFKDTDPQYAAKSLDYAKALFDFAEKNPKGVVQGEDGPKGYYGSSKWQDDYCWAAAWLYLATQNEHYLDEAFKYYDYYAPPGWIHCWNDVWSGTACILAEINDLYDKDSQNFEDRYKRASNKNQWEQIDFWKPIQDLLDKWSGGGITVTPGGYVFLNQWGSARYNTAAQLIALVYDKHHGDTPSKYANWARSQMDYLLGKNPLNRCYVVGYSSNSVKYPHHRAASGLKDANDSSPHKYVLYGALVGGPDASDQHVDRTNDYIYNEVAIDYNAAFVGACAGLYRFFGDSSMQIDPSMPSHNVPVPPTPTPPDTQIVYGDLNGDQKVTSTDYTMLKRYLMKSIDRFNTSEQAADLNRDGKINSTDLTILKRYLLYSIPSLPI

Cel9D = target: T2, Cel9D (Acetivibrio thermocellus, UniProt A3DDN1)
T2 construct: gene celD; signal peptide removed, Ig-like module and dockerin kept, His-tag, E. coli BL21
T2 sequence (A3DDN1 42-649): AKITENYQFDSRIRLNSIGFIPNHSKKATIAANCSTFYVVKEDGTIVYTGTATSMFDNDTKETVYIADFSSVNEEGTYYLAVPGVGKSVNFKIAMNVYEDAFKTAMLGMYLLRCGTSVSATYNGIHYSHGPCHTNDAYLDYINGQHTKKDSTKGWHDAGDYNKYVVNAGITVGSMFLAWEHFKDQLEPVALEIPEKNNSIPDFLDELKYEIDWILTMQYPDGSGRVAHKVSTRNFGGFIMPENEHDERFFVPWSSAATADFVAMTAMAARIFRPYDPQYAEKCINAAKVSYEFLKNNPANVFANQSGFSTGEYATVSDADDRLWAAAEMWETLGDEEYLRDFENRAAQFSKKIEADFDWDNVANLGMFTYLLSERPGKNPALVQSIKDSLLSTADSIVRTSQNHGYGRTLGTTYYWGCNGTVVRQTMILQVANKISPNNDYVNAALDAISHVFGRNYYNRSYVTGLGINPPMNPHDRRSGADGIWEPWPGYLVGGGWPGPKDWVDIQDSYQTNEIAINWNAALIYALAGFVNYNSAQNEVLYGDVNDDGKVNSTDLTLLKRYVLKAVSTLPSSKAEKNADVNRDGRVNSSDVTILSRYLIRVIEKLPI

Cel9K = target: T3, Cel9K (Acetivibrio thermocellus, UniProt A3DCH1)
T3 construct: gene celK; signal peptide removed, dockerin kept, His-tag, codon-optimised synthetic gene, E. coli BL21
T3 sequence (A3DCH1 28-895): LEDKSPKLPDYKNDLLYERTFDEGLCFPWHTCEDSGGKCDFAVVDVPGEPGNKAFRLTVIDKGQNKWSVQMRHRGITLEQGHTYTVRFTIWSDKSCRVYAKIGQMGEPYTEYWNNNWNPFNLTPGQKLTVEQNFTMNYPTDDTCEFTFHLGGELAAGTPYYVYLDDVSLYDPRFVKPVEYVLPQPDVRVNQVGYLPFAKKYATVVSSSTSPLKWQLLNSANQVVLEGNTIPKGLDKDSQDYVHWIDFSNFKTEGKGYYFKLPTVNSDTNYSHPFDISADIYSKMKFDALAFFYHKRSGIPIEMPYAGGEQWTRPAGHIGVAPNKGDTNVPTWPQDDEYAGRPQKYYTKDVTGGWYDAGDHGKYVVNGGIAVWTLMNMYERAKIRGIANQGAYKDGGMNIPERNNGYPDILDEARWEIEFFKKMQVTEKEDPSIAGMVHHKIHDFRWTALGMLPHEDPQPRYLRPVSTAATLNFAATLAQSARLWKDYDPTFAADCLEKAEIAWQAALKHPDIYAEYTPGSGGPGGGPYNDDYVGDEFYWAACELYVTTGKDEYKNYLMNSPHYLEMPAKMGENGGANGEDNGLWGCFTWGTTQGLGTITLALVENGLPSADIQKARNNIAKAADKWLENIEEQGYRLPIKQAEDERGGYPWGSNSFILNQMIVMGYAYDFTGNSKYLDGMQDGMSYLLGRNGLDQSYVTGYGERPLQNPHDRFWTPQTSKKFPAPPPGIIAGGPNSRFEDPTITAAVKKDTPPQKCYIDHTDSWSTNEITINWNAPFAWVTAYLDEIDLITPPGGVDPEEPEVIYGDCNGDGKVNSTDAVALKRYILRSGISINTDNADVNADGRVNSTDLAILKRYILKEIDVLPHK

Cel9-44J = target: T4, Cel9-44J (Acetivibrio thermocellus, UniProt A3DD30)
T4 construct: gene Cthe_0624; signal peptide removed, GH9 and GH44 modules, dockerin kept, His-tag, codon-optimised synthetic gene, E. coli BL21
T4 sequence (A3DD30 28-1601): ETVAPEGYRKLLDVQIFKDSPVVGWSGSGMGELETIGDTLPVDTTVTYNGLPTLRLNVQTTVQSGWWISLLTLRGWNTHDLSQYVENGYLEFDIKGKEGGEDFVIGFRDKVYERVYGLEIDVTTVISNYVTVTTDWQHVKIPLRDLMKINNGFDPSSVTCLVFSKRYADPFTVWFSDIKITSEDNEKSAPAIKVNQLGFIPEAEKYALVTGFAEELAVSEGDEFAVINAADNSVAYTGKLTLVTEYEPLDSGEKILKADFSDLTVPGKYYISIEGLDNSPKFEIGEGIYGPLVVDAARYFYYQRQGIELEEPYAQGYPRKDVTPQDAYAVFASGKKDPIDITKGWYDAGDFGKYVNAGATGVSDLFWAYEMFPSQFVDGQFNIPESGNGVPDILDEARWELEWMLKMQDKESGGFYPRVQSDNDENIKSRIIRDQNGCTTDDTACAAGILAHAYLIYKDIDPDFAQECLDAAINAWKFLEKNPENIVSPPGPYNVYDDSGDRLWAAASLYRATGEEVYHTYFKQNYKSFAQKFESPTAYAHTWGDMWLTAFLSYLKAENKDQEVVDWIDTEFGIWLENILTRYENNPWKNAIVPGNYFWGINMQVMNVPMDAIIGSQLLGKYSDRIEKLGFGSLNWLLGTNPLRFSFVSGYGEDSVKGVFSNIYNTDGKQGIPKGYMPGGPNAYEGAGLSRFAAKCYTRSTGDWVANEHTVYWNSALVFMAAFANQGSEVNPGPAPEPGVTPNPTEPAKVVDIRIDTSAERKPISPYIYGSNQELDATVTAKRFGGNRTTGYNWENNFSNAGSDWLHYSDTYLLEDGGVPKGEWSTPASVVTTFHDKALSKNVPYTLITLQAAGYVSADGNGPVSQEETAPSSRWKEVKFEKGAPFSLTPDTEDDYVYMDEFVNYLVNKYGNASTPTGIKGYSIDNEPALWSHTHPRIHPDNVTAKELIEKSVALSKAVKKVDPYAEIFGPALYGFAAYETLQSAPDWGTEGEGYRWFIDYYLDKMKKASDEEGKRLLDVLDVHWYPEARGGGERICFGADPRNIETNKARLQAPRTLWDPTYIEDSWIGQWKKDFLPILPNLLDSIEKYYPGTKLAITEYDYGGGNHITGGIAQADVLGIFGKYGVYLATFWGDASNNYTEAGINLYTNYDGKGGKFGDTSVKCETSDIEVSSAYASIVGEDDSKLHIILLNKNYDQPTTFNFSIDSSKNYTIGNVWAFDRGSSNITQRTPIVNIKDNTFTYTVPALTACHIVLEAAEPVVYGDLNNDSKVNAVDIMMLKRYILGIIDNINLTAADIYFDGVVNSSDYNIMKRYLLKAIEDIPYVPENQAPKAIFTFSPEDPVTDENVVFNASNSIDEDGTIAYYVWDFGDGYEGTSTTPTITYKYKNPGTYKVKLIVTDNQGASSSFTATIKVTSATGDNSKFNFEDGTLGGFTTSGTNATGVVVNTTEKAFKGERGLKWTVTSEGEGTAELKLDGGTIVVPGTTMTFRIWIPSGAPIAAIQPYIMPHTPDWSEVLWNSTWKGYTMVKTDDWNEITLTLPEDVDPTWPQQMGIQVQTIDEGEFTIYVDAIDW

Cel5-26H = target: T5, Cel5-26H (Acetivibrio thermocellus, UniProt P16218)
T5 construct: gene celH; signal peptide removed, GH5 and GH26 modules, dockerin kept, His-tag, E. coli BL21
T5 sequence (P16218 45-900): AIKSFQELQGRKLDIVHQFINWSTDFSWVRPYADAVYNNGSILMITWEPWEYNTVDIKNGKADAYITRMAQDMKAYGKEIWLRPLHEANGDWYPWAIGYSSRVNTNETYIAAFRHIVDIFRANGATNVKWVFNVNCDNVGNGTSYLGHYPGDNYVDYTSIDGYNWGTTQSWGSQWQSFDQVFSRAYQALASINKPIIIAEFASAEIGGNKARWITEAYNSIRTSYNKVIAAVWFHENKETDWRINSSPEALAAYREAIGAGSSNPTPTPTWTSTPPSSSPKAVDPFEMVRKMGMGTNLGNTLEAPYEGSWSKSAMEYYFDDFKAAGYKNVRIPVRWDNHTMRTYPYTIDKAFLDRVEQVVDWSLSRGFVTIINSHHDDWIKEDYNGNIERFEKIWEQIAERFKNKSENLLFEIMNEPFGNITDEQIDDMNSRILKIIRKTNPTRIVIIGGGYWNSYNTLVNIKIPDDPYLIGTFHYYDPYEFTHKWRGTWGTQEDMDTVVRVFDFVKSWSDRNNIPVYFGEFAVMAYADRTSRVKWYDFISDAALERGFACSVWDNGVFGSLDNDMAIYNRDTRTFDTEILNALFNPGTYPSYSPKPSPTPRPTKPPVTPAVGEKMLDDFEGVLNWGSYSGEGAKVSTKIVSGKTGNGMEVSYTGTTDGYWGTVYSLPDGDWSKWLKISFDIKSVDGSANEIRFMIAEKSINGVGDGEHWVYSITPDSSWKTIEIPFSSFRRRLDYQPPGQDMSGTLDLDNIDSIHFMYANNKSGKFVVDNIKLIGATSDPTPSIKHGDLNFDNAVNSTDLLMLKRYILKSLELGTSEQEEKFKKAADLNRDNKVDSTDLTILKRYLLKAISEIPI

Cbh9A = target: T6, Cbh9A (Acetivibrio thermocellus, UniProt A3DCH2)
T6 construct: gene Cthe_0413; signal peptide removed, dockerin kept, His-tag, E. coli BL21
T6 sequence (A3DCH2 28-1224): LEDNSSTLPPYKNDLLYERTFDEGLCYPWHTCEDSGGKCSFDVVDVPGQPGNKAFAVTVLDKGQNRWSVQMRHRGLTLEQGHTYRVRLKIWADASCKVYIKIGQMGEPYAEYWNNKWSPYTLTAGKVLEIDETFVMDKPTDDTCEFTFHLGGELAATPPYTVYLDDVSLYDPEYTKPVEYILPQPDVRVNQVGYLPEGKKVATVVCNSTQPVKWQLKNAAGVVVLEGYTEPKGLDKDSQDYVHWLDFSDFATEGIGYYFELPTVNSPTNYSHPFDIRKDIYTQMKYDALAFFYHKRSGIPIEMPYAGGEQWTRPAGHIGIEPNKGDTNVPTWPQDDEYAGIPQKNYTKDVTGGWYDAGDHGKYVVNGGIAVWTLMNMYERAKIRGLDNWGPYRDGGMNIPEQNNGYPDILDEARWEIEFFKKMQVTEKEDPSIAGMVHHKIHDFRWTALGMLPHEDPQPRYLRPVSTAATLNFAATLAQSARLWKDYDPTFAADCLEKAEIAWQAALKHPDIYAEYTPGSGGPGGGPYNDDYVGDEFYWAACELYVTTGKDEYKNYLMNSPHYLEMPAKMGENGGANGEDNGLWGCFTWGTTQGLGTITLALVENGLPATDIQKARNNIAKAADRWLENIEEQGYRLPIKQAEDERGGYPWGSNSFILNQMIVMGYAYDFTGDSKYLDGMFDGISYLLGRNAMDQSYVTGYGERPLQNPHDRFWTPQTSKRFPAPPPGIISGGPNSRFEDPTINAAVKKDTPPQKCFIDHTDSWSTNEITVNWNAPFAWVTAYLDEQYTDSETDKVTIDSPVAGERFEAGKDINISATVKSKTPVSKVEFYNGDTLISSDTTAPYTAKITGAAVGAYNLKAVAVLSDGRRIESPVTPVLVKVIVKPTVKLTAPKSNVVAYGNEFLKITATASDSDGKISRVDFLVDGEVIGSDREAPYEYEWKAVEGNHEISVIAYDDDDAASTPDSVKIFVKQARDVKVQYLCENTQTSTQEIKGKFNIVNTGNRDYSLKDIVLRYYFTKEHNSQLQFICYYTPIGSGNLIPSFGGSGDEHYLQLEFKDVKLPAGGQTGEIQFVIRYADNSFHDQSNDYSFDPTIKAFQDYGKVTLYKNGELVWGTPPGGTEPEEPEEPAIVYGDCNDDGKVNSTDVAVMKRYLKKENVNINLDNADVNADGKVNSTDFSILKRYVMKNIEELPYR

What does the source list for OC[C@H]1O[C@@H](O[C@H]2[C@H](O)[C@@H](O)[C@H](O[C@H]3[C@H](O)[C@@H](O)[C@H](O[C@H]4[C@H](O)[C@@H](O)[C@H](O[C@H]5[C@H](O)[C@@H](O)[C@H](O[C@H]6[C@H](O)[C@@H](O)C(O)O[C@@H]6CO)O[C@@H]5CO)O[C@@H]4CO)O[C@@H]3CO)O[C@@H]2CO)[C@H](O)[C@@H](O)[C@@H]1O (stereo partly drawn) [cellohexaose]?
TLC product analysis (Cel9T): characterized by their indiscriminate scission of cello-oligosaccharides; TLC product analysis (Cel9D): confirmed by the hydrolysis products from cello-oligosaccharides as substrate; TLC product analysis (Cel9K): released specifically cellobiose as the only product over time (Cel48S, Cel9K, and Cbh9A); TLC product analysis (Cel9-44J): characterized by their indiscriminate scission of cello-oligosaccharides; TLC product analysis (Cel5-26H): characterized by their indiscriminate scission of cello-oligosaccharides; TLC product analysis (Cbh9A): released specifically cellobiose as the only product over time (Cel48S, Cel9K, and Cbh9A)

From paper PMC5651568, “Comparative characterization of all cellulosomal cellulases from Clostridium thermocellum reveals high diversity in endoglucanase product formation essential for complex activity” (Biotechnology for Biofuels, 2017)
